The values that follow come from patent US10039283B2, “Substituted pyrazolyl-nicotin(thio)amide derivatives and their use as fungicides” (BAYER CROPSCIENCE AKTIENGESELLSCHAFT, priority 2014, dated 2018).

The first data set can be described thus: Log P by HPLC on reversed phase, method [a], acidic range (0.1% formic acid). In kind it is physicochemical. The following applies: LC-UV, 0.1% formic acid in water and acetonitrile.
On to `CCc1c(NC(=O)c2cc(C)cnc2C(F)F)cnn1-c1ccc(C)cc1` [Example 207], for which the LogP was 2.57^[a].
As for `Cc1cccc(-n2ncc(NC(=O)c3ccc(Cl)nc3C(F)F)c2C(F)(F)F)c1` [Example 156], the LogP is 3.33^[a].
On the same count and under the same terms, with `CCc1c(NC(=O)c2cccnc2C(F)F)cnn1-c1ccccc1C` [Example 104] the figure was 2.18^[a]; with `O=C(Nc1cnn(-c2ccc(SC(F)(F)F)cc2)c1C(F)(F)F)c1cccnc1C(F)F` [Example 243], 3.68^[a]; with `Cc1ccc(-n2ncc(NC(=O)c3ccc(Cl)nc3C(F)F)c2C(F)(F)F)cc1` [Example 157], 3.48^[a].
Same read-out and setting: the same measure for `O=C(Nc1cnn(-c2ccc(F)cc2)c1Cl)c1cccnc1C(F)F` [Example 190]: 2.14^[a]; for `O=C(Nc1cnn(-c2cccc(F)c2)c1-c1cccc(Cl)c1)c1cccnc1C(F)F` [Example 58]: 2.98^[a].
Still for that read-out and setting: the same measure for `O=C(Nc1cnn(-c2ccc(Oc3ccc(Cl)cc3)cc2)c1C(F)(F)F)c1cccnc1C(F)F` [Example 244]: 4.11^[a]; for `O=C(Nc1cnn(-c2ccccc2Cl)c1Br)c1cccnc1C(F)F` [Example 217]: 2.18^[a]; for `Cc1cccc(-n2ncc(NC(=O)c3cccnc3C(F)F)c2C(C)C)c1` [Example 116]: 2.50^[a].
For the compound `CC(C)c1c(NC(=O)c2cccnc2C(F)F)cnn1-c1ccccc1Cl` [Example 109], the LogP was 2.35^[a].
Turning to `O=C(Nc1cnn(-c2ccc(Cl)c(Cl)c2)c1C(F)(F)F)c1cccnc1C(F)F` [Example 96], the LogP was 3.51^[a].
Same read-out and setting: with `Cc1nn(-c2cccc(F)c2)c(C)c1NC(=O)c1cccnc1C(F)(F)F` [Example 16] the figure was 2.27^[a]; with `O=C(Nc1cnn(-c2ccc(Cl)c(Cl)c2)c1C(F)(F)F)c1ccc(Br)nc1C(F)F` [Example 181], 4.19^[a]; with `Cc1cnc(C(F)F)c(C(=O)Nc2cnn(-c3ccccc3F)c2C(F)(F)F)c1` [Example 140], 2.77^[a].
On to `O=C(Nc1cnn(-c2ccc(I)cc2)c1C(F)(F)F)c1cccnc1C(F)F` [Example 234], for which the LogP was 3.25^[a].
Consider `CCCCn1ncc(NC(=O)c2cccnc2C(F)F)c1CC` [Example 122], for which the LogP is 2.00^[a].
Still for that read-out and setting: the same measure for `O=C(Nc1cnn(-c2cc(Cl)ccc2Cl)c1C(F)(F)F)c1ccc(Br)nc1C(F)F` [Example 178]: 3.85^[a]; for `Cc1c(NC(=O)c2cccnc2C(F)F)cnn1-c1ccccc1C(F)(F)F` [Example 111]: 2.08^[a]; for `N#Cc1c(NC(=O)c2cccnc2C(F)F)cnn1-c1ccc(Cl)cc1` [Example 223]: 2.64^[a].
Same read-out and setting: with `O=C(Nc1cnn(-c2ccccc2Cl)c1-c1ccc(F)cc1)c1cccnc1C(F)F` [Example 83] the figure was 2.66^[a].
Still for that read-out and setting: with `O=C(Nc1cnn(-c2ccc(Cl)cc2)c1C(F)F)c1cccnc1C(F)F` [Example 23] the figure was 2.69^[a]; with `COc1c(NC(=O)c2cccnc2C(F)F)c(C)nn1-c1ccccc1` [Example 76], 1.88^[a].
On to `O=C(Nc1cnn(-c2cc(Cl)cc(Cl)c2)c1C(F)(F)F)c1cccnc1C(F)F` [Example 92], for which the LogP is 3.64^[a].
On the same count and under the same terms, with `CCc1c(NC(=O)c2cc(C)cnc2C(F)F)cnn1-c1ccc(Cl)cc1` [Example 214] the figure was 2.73^[a].
On the same count and under the same terms, with `O=C(Nc1cnn(-c2ccc(OC(F)(F)C(F)F)cc2)c1C(F)(F)F)c1cccnc1C(F)F` [Example 247] the figure was 3.19^[a]; with `O=C(Nc1cnn(-c2ccc(Cl)cc2Cl)c1C(F)(F)F)c1cccnc1C(F)F` [Example 93], 3.27^[a]; with `O=C(Nc1cnn(-c2cccc(C(F)F)c2)c1C(F)(F)F)c1cccnc1C(F)F` [Example 64], 2.71^[a].
As for `O=C(Nc1cnn(-c2ccc(Br)cc2)c1-c1ccccc1)c1cccnc1C(F)F` [Example 196], the LogP was 3.10^[a].
Turning to `Cc1c(NC(=O)c2cccnc2C(F)F)cnn1-c1ccc(OC(F)(F)F)cc1` [Example 242], the LogP was 2.64^[a].
Take `CCc1c(NC(=O)c2cccnc2C(F)F)cnn1C(CC)CC` [Example 127]: the LogP is 2.20^[a].
With `O=C(Nc1cnn(-c2cccc(C(F)(F)F)c2)c1C(F)F)c1cccnc1C(F)F` [Example 30], the LogP was 2.88^[a].
For `O=C(Nc1cnn(-c2ccc(Br)cc2)c1C(F)(F)F)c1cccnc1CF` [Example 248], the LogP is 2.80^[a].
On to `CC(C)c1ccc(-n2ncc(NC(=O)c3ccc(Cl)nc3C(F)F)c2C(F)(F)F)cc1` [Example 159], for which the LogP was 4.13^[a].
On the same count and under the same terms, the same measure for `O=C(Nc1cnn(-c2cc(F)cc(F)c2)c1C(F)F)c1cccnc1C(F)F` [Example 29]: 2.62^[a].
Regarding `Cc1ccc(-n2ncc(NC(=O)c3cccnc3C(F)F)c2C(F)(F)F)cc1` [Example 87], the LogP was 2.86^[a].
Still for that read-out and setting: the same measure for `CC(C)c1cccc(-n2ncc(NC(=O)c3cccnc3C(F)F)c2C(F)(F)F)c1` [Example 3]: 3.51^[a]; for `Cc1ccc(-n2ncc(NC(=O)c3cccnc3C(F)F)c2C)cc1` [Example 112]: 2.10^[a]; for `COc1c(NC(=O)c2cccnc2C(F)F)cnn1-c1cc(Cl)cc(Cl)c1` [Example 216]: 3.02^[a].
Still for that read-out and setting: with `O=C(Nc1cnn(-c2cccc(Cl)c2Cl)c1C(F)(F)F)c1cccnc1C(F)F` [Example 94] the figure was 3.11^[a]; with `CCc1c(NC(=O)c2cc(C)cnc2C(F)F)cnn1-c1cccc(C)c1` [Example 206], 2.57^[a].
On the same count and under the same terms, the same measure for `Cc1c(NC(=O)c2cccnc2C(F)F)cnn1-c1ccc(Cl)cc1` [Example 46]: 2.25^[a]; for `COc1ccc(-n2ncc(NC(=O)c3cccnc3C(F)F)c2Cl)cc1` [Example 189]: 2.09^[a]; for `CSc1ccc(-n2ncc(NC(=O)c3cccnc3C(F)F)c2C(F)(F)F)cc1` [Example 246]: 2.94^[a].
As for `Cc1cnc(C(F)F)c(C(=O)Nc2cnn(-c3ccc(OC(F)(F)F)cc3)c2C)c1` [Example 241], the LogP was 2.86^[a].
With `Cc1cnc(C(F)F)c(C(=O)Nc2cnn(-c3ccc(Cl)cc3)c2C)c1` [Example 71], the LogP was 2.49^[a].
For `CC(C)c1c(NC(=O)c2cccnc2C(F)F)cnn1-c1ccc(Cl)cc1` [Example 102], the LogP is 2.62^[a].
Still for that read-out and setting: the same measure for `O=C(Nc1cnn(-c2ccccc2F)c1-c1ccc(Cl)cc1)c1cccnc1C(F)F` [Example 149]: 2.73^[a].
Turning to `O=C(Nc1cnn(-c2cccc(Cl)c2)c1-c1cccc(Cl)c1)c1cccnc1C(F)F` [Example 54], the LogP was 3.31^[a].
Same read-out and setting: the same measure for `O=C(Nc1cnn(-c2cc(Cl)cc(Cl)c2)c1Br)c1cccnc1C(F)F` [Example 203]: 3.23^[a]; for `CCc1c(NC(=O)c2cccnc2C(F)F)cnn1-c1ccccc1` [Example 119]: 2.01^[a]; for `Cc1c(NC(=O)c2cccnc2C(F)F)cnn1-c1ccc(Br)cc1` [Example 134]: 2.34^[a].
On the same count and under the same terms, the same measure for `CC(C)Oc1c(NC(=O)c2cccnc2C(F)F)cnn1-c1ccc(Cl)cc1` [Example 226]: 2.86^[a].
On the same count and under the same terms, with `O=C(Nc1cnn(-c2ccc(C(F)(F)F)cc2)c1-c1ccc(F)cc1)c1cccnc1C(F)F` [Example 184] the figure was 3.31^[a].
As to `Cc1cnc(C(F)F)c(C(=O)Nc2cnn(-c3cccc(Cl)c3)c2C(F)(F)F)c1` [Example 138], the LogP was 3.25^[a].
Still for that read-out and setting: with `CCCOc1c(NC(=O)c2cccnc2C(F)F)cnn1-c1ccc(Cl)cc1` [Example 227] the figure was 2.95^[a].
Take `O=C(Nc1cnn(-c2ccc(C(F)(F)F)cc2)c1-c1cccc(Cl)c1)c1cccnc1C(F)F` [Example 55]: the LogP was 3.58^[a].
In the case of `Cc1cnc(C(F)F)c(C(=O)Nc2cnn(Cc3ccccc3)c2C(F)(F)F)c1` [Example 170], the LogP is 2.95^[a].
Same read-out and setting: the same measure for `CC(C)n1ncc(NC(=O)c2ccc(Cl)nc2C(F)F)c1C1CC1` [Example 43]: 2.33^[a].
`COc1cnc(C(F)F)c(C(=O)Nc2cnn(-c3ccc(Cl)c(Cl)c3)c2C(F)(F)F)c1` [Example 136]: the LogP is 3.76^[a].
Still for that read-out and setting: with `Cc1nn(-c2ccccc2)c(Br)c1NC(=O)c1cccnc1C(F)F` [Example 35] the figure was 2.07^[a]; with `CCCCn1ncc(NC(=O)c2cccnc2C(F)F)c1C(C)C` [Example 123], 2.18^[a].
Same read-out and setting: the same measure for `CC(C)c1c(NC(=O)c2cccnc2C(F)F)cnn1-c1cccc(Cl)c1` [Example 103]: 2.60^[a]; for `Cc1cccc(-n2ncc(NC(=O)c3cc(C)cnc3C(F)F)c2C)c1` [Example 67]: 2.35^[a]; for `Cc1nn(-c2ccccc2)c(Cl)c1NC(=O)c1cccnc1C(F)F` [Example 75]: 2.08^[a].
As to `O=C(Nc1cnn(-c2ccc(F)cc2)c1-c1cccc(Cl)c1)c1cccnc1C(F)F` [Example 128], the LogP is 2.92^[a].
Same read-out and setting: with `COCc1c(NC(=O)c2cc(C)cnc2C(F)F)cnn1-c1ccc(Br)cc1` [Example 250] the figure was 2.80^[a].
On the same count and under the same terms, with `COc1cnc(C(F)F)c(C(=O)Nc2cnn(-c3cc(Cl)ccc3Cl)c2C(F)(F)F)c1` [Example 177] the figure was 3.39^[a].
On the same count and under the same terms, with `O=C(Nc1cnn(-c2cccc(Cl)c2Cl)c1C(F)(F)F)c1ccc(Cl)nc1C(F)F` [Example 163] the figure was 3.71^[a]; with `COc1c(NC(=O)c2cccnc2C(F)F)cnn1-c1ccc(C(F)(F)F)cc1` [Example 219], 2.63^[a].

Still in this data set, the particulars now being: reversed phase HPLC column, LC-UV, 0.1% formic acid in water and acetonitrile.
As usually defined, the chromatographic logP is lipophilicity estimated from chromatographic retention. Low readings indicate a more hydrophilic compound, high ones a more lipophilic compound. For the compound `O=C(Nc1cnn(-c2ccccc2)c1C(F)(F)F)c1ccc(Cl)nc1C(F)F` [Example 1, 6-chloro-2-(difluoromethyl)-N-[1-phenyl-5-(trifluoromethyl)-1H-pyrazol-4-yl]nicotinamide], the chromatographic logP turned out to be 2.8.
On the same count and under the same terms, the same measure for `FC(F)c1cccc(-n2ncc(NC(=S)c3cccnc3C(F)F)c2C(F)F)c1` [Example 34, 2-(difluoromethyl)-N-{5-(difluoromethyl)-1-[3-(difluoromethyl)phenyl]-1H-pyrazol-4-yl}pyridine-3-carbothioamide]: 2.9.
